For six compounds, Ki and Emax results are on record in ChEMBL document CHEMBL1151921 (Bioorg Med Chem, 2009).

One assay has as its target D(2) dopamine receptor (Rattus norvegicus, UniProt P61169). The assay can be described thus: Displacement of [3H]spiperone from rat dopamine D2L receptor expressed in HEK293 cells. It counts as cell-based. Background: In a radioligand displacement assay an active substance lowers the binding of a labelled ligand.
The target in the next assay is D(3) dopamine receptor (Rattus norvegicus, UniProt P19020). The assay can be described thus: biochemical.
For assay [1], the target named is D(2) dopamine receptor (Homo sapiens) (UniProt P14416). As to the kind of experiment: Activity at human dopamine D2L receptor expressed in CHO cells assessed as stimulation of [35S]GTPgammaS binding relative to dopamine. It counts as functional, cell-based. A general note: GTPγS resists hydrolysis and so accumulates on activated G proteins.
D(2) dopamine receptor (Homo sapiens), sequence (P14416 whole entry): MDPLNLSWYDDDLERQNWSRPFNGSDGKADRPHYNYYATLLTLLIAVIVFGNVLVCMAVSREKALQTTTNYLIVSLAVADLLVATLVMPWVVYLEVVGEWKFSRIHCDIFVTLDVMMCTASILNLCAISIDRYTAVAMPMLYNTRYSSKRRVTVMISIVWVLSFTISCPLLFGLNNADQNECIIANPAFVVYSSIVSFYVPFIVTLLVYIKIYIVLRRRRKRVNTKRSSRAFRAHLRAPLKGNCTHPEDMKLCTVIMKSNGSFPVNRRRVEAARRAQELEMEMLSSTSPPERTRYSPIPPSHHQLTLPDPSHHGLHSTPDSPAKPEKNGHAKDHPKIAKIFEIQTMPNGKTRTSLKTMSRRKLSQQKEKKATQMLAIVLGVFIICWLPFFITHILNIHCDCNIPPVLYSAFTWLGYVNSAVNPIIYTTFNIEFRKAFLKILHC

D(2) dopamine receptor, sequence (P61169 whole entry): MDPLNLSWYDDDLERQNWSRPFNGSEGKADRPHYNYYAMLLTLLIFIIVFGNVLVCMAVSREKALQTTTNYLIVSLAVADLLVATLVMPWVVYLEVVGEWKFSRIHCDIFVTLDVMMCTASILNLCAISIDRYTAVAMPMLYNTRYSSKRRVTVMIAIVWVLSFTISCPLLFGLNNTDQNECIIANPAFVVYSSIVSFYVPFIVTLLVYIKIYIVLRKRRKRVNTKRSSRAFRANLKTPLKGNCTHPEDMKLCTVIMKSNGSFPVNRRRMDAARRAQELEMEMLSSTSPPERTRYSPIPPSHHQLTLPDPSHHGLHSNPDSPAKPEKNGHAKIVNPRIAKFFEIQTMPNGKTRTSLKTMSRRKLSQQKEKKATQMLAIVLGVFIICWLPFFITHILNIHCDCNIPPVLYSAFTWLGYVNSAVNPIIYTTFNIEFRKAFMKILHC
D(3) dopamine receptor, sequence (P19020 whole entry): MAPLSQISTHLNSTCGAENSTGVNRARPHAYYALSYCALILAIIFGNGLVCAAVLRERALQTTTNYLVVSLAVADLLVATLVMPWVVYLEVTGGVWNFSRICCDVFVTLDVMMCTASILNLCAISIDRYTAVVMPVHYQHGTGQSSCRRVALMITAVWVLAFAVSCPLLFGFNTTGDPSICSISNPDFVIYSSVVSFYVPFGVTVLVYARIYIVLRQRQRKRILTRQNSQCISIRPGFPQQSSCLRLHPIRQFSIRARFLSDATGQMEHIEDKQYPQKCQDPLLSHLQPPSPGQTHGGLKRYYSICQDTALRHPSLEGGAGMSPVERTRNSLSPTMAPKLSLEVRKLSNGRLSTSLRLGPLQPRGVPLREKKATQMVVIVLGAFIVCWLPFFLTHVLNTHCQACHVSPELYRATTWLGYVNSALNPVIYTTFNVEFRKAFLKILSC

Regarding `CCCN(CCN1CCN(C(=O)c2ccc3[nH]ccc3c2)CC1)C1CCc2ccc(O)cc2C1` (stereo not drawn), at D(2) dopamine receptor, the affinity corresponds to a Ki of 65.9 nM.

Turning to `CCCN(CCN1CCN(C(=O)c2cc3ccccc3o2)CC1)C1CCc2c(O)cccc2C1` (stereo not drawn), the inhibition constant (Ki) on D(2) dopamine receptor turned out to be 132 nM; at D(3) dopamine receptor it was 5.23 nM.

Regarding `CCCN(CCC)C1CCc2c(O)cccc2C1` (stereo not drawn), in assay [1], the Emax was 77.8%.

The compound `CCCN(CCN1CCN(c2ccc(-c3ccccc3)cc2)CC1)[C@H]1CCc2nc(N)sc2C1` displayed an inhibition constant (Ki) at D(2) dopamine receptor of 264 nM.

`CCCN(CCN1CCN(Cc2cc3ccccc3[nH]2)CC1)C1CCc2ccc(O)cc2C1` (stereo not drawn): the figures for the Ki at D(2) dopamine receptor and on D(3) dopamine receptor were 100 nM and 4.82 nM, respectively.

As for `CCCN(CCN1CCN(C(=O)c2ccc3[nH]ccc3c2)CC1)[C@H]1CCc2c(O)cccc2C1`, the Emax in assay [1] was 80%.

As usually defined, the Ki is a measure of affinity in units of concentration, obtained from inhibition or displacement. Read a low Ki as tighter binding. What is called Emax is the greatest response seen or fitted, relative to the assay's reference.
